According to patent US20260125375A1 (Pfizer Inc., priority 2022, published 2026):
Where two headings read alike, the source gives them in different places.

Key:
[1] = target: T1, C-CBL (Homo sapiens, UniProt P22681); assay: Jurkat HiBit-IL2 assay (CBL-B KO), reporter cell line expressing C-CBL only; type: cell-based; conditions: geometric mean, read-out: CBL-B KO EC50 (nM) GMean
T1 construct: endogenous in cells; host or cells: Jurkat HiBit-IL2 reporter cells, CBL-B knocked out by CRISPR
Method in brief: (§1)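 IL-2 secretion was measured by HiBiT luminescence after 1 h compound exposure (0.1% DMSO) and 4 h TCR/CD28 stimulation (final anti-CD3 1 μg/ml, anti-CD28 2 μg/ml, 37 °C) of Jurkat reporters lacking c-CBL or CBL-B. EC50 came from fold-of-effect versus stimulated-only cells, as geometric means across tests.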

[2] = target: T2, CBL-B (residues 36-427) (Homo sapiens, UniProt Q13191); assay: Ligand Displacement Assay (LDA), HTRF competitive binding against BODIPY-labeled fluorescent tracer, CBL-B; conditions: geometric mean of the number of tests, read-out: CBL-B Ki (nM) GMean
T2 construct: Purified CBL-B (residues 36-427) and C-CBL (residues 46-435) proteins from baculovirus-infected insect cells; made in house; host or cells: baculovirus-infected insect cells
Method in brief: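 Competition with a BODIPY fluorescent tracer was read by HTRF, each protein carrying an N-terminal biotinylated AviTag bound to Tb-streptavidin. Tracer KD values were set beforehand per protein; Ki derives from duplicate three-fold compound series ([…], 2% DMSO), averaged geometrically across tests.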

[3] = target: T3, CBL-B (Homo sapiens, UniProt Q13191); assay: Jurkat HiBit-IL2 assay (c-CBL KO), reporter cell line expressing CBL-B only; type: cell-based; conditions: geometric mean, read-out: C-CBL KO EC50 (nM) GMean
T3 construct: endogenous in cells; host or cells: Jurkat HiBit-IL2 reporter cells, C-CBL knocked out by CRISPR
Method in brief: as §1

[4] = CBL-B KO (C-CBL only), anti-CD3/anti-CD28 stimulation 4 hours, Table 16a
[5] = c-CBL KO (CBL-B only), anti-CD3/anti-CD28 stimulation 4 hours, Table 16a
[6] = CBL-B KO (expressing C-CBL only), Table 16b (further repetition)
[7] = C-CBL KO (expressing CBL-B only), Table 16b (further repetition)

| Structure (SMILES) | EC50 [1, 4] [nM] | Ki [2] [nM] | EC50 [3, 5] [nM] | EC50 [1, 6] [nM] | EC50 [3, 7] [nM] |
| --- | --- | --- | --- | --- | --- |
| CC(NC1CNC1)c1nc(C(F)(F)F)cc2c(-c3cccc(C4(Cc5nncn5C)COC4)c3)n[nH]c12 (single isomer, unassigned) [Example C28, N-{(1ξ)-1-[3-(3-{3-[(4-methyl-4H-1,2,4-triazol-3-yl)methyl]oxetan-3-yl}phenyl)-5-(trifluoromethyl)-1H-pyrazolo[3,4-c]pyridin-7-yl]ethyl}azetidin-3-amine] | > 5190 | 33.4 | > 2070 |  |  |
| C[C@@H](N[C@H]1CCC(F)(F)C1)c1nc(C(F)(F)F)cc2c(-c3cccc([C@H](c4nncn4C)C4CCC4)c3)n[nH]c12 [Example C9] | 606 | 5 | 32 | 176 | 32 |
| C[C@H](N[C@@H]1CCC[C@@H]1O)c1nc(C(F)(F)F)cc2c(-c3cccc([C@H](c4nncn4C)C4CCC4)c3)n[nH]c12 (single isomer, unassigned) [Example D15] | 20 | 0.9 | 3 | 11 | 4 |
| CC(c1nc(C(F)(F)F)cc2c(-c3cccc(C4(Cc5nncn5C)COC4)c3)n[nH]c12)N1CCOCC1 (single isomer, unassigned) [Example C24, 3-(3-{3-[(4-methyl-4H-1,2,4-triazol-3-yl)methyl]oxetan-3-yl}phenyl)-7-[(1ξ)-1-(morpholin-4-yl)ethyl]-5-(trifluoromethyl)-1H-pyrazolo[3,4-c]pyridine] | 2970 | 28.3 | 434 |  |  |
| C[C@H](c1nc(C(F)(F)F)cc2c(-c3cccc(C4(Cc5nncn5C)COC4)c3)n[nH]c12)N1C[C@H](F)[C@@H](F)C1 (single isomer, unassigned) [Example D8] | 1210 | 25.4 | 603 |  |  |
